“Also recorded” adds a separate entry of the source. Like-named read-outs stand apart in the source and are kept apart here.
Experiments:
[1] = Flow cytometric calcium permeabilization of phosphatidylserine liposomes (Fluo-3/DiD); assay type: biochemical; settings: for permeabilization of negatively charged (phosphatidylserine) liposomes to calcium: 400 nm liposomes, Fluo-3, flow cytometer
Protocol: (§1) The figure is a composite of data which was presented and analyzed in detail in (Zaretsky and Zaretskaia 2020, Zaretsky and Zaretskaia 2020). Liposomes (400 nm) were made of either phosphatidylserine (A-E, negatively charged lipid) or phosphatidylcholine (F-H, neutral lipid) with added DiD and were extruded in the Ca-free buffer containing 1 mM Fluo-3. After the addition of calcium, aliquots of peptide were added. Ionomycin was used as a positive control. Fluorescence of liposomes was analyzed using a flow cytometer. Each dot at the graph represent a single liposome registered in the flow. The intensity of DiD fluorescence characterizes the amount of membrane material in the liposome, while the fluorescence of Fluo-3 depends on the intraliposomal presence of calcium. […] The liposomes inside rectangle (area R1) are permeabilized, and the number of liposomes which were counted to be within the area is shown.
Liposomes with embedded ion-sensitive probe are used as a test system. Liposomes are extruded from phosphatidylserine containing membrane probe (i.e. DiD) in a calcium-free buffer containing ion-sensitive probe (i.e. Fluo-4) and volume probe (i.e. dextran-tetramethylrhodamin) or membrane probe (DiD). Extravesicular probes are cleared using either centrifugation, or dialysis. After the addition of calcium, the intravesicular calcium-sensing probe remain non-fluorescent because membranes are not permeable to calcium. If membrane channels are formed, calcium enters permeable liposomes, saturates the calcium-sensing dye, so the liposome becomes fluorescent. The number of fluorescent liposomes is an estimate of the number of channel-forming units in the solution.

[2] = Flow cytometric calcium permeabilization of phosphatidylcholine liposomes (Fluo-3/DiD); assay type: biochemical; settings: 400 nm liposomes, Fluo-3, flow cytometer
Protocol: as §1

[3] = system: Aβ-induced apoptosis in the brain; settings: cited from earlier work; for Aβ-induced apoptosis (TUNEL marker in the brain) / accumulation of Aβ immunoreactivity / amyloid: chronic Aβ infusion with simultaneous i.c.v. infusion of inhibitor
amyloid channels = amyloid channels (Homo sapiens, UniProt P05067); settings: cited from earlier work
[4] = cited from earlier work
Aβ1-42 toxicity = settings: Aβ1-42, Aksenov 1996; cited from earlier work
[5] = system: rat primary cortical cultures; settings: MTT, different concentrations of Aβ; cited from earlier work
[6] = system: 15 cells derived from pancreatic islets of Langerhans; settings: cited from earlier work; for beta-amyloid-induced drop in cell viability: two cell lines, not specified
[7] = system: 15 cells derived from pancreatic islets of Langerhans; settings: cited from earlier work; for amylin-induced drop in cell viability / cellular toxicity: pancreatic islet cell line
[8] = system: Aβ1-42-induced drop of cell survival; settings: Tizon 2010; cited from earlier work
[9] = MTT, listed as al-anti-chymotrypsin

Sequence of amyloid channels (P05067 672-711): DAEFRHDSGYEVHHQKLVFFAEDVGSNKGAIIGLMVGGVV

Molecule: C[C@H](CCC(=O)O)C[C@H](C)C[C@H](C)C(=O)/C=C(\O)[C@H](C)C[C@H](C)C/C=C/[C@@H](C)[C@@H](O)[C@@H](C)[C@@H](O)C[C@@H]1CC[C@@](C)([C@H]2CC[C@@](C)([C@@H](C)O)O2)O1 [ionomycin]
- permeabilization of negatively charged (phosphatidylserine) liposomes to calcium [1]: permeabilizes liposomes
- permeabilization of neutral (phosphatidylcholine) liposomes to calcium [2]: permeabilizes thousands of liposomes

Molecule: CC(=O)N[C@@H](CC(C)C)C(=O)N[C@@H](CC(C)C)C(=O)N[C@H](C=O)CCCNC(=N)N [leupeptin]
- Aβ-induced apoptosis (TUNEL marker in the brain) ([3]; rats): promoted apoptosis
- accumulation of Aβ immunoreactivity / amyloid ([3]; rats): accumulation of extracellular and intracellular Aβ immunoreactivity
- apoptosis by the inhibitor itself (spontaneously occurring, TUNEL) ([3]; rats, inhibitor without Aβ): tends to increase apoptosis

Molecule: NC(CO)(CO)CO [tromethamine]
- blockade of smaller amyloid channels (<400 pS) (amyloid channels): effectively blocked
- blockade of super-high conductance giant channels (>1 nS) (amyloid channels): less effective

Molecule: Aβ1-42: full-length amyloid peptide
- permeabilization of negatively charged (phosphatidylserine) liposomes to calcium [1]: ineffective; also recorded: does not permeabilize liposomal membranes

Molecule: Aβ22-35: longer beta-amyloid fragment without positive charge, non-channel-forming (EDVGSNKGAIIGLM; Amyloid-beta protein 42; UniProt P05067 693-706, looked up, fragment)
- permeabilization of negatively charged (phosphatidylserine) liposomes to calcium [1]: does not create a noticeable number of channels; also recorded: does not permeabilize liposomes

Molecule: Aβ25-35: positively charged short beta-amyloid fragment, channel-forming (GSNKGAIIGLM; Amyloid-beta protein 42; UniProt P05067 696-706, looked up, fragment)
- share of channels with high conductance ([4]; acidic pH (pH 5.0), 20 μM peptide): more than 30%
- conductance of channels formed (upper value) ([4]; planar lipid bilayers): up to 1 nS
- permeabilization of negatively charged (phosphatidylserine) liposomes to calcium [1]: Membrane permeabilization occurs; also recorded: creates multiple liposomes permeable to calcium
- molecules of peptide out of which one channel is formed ([1]; model conditions): approximately 10^12 molecules
- permeabilization of neutral (phosphatidylcholine) liposomes to calcium [2]: does not permeabilize liposomes; also recorded: not permeabilized

Molecule: aprotinin
- apoptosis by the inhibitor itself (spontaneously occurring, TUNEL) ([3]; rat, in vivo): tends to decrease even spontaneously occurring apoptosis
- Aβ-induced apoptosis (TUNEL marker in the brain) ([3]; rats): prevented Aβ-induced apoptosis
- accumulation of Aβ immunoreactivity / amyloid ([3]; rats): did not exacerbate intracellular accumulation of amyloid

B1: α1-anti-chymotrypsin (protein, UniProt P01011 24-423, looked up)
Alpha-1-antichymotrypsin: HPNSPLDEENLTQENQDRGTHVDLGLASANVDFAFSLYKQLVLKAPDKNVIFSPLSISTALAFLSLGAHNTTLTEILKGLKFNLTETSEAEIHQSFQHLLRTLNQSSDELQLSMGNAMFVKEQLSLLDRFTEDAKRLYGSEAFATDFQDSAAAKKLINDYVKNGTRGKITDLIKDLDSQTMMVLVNYIFFKAKWEMPFDPQDTHQSRFYLSKKKWVMVPMMSLHHLTIPYFRDEELSCTVVELKYTGNASALFILPDQDKMEEVEAMLLPETLKRWRDSLEFREIGELYLPKFSISRDYNLNDILLQLGIEEAFTSKADLSGITGARNLAVSQVVHKAVLDVFEEGTEASAATAVKITLLSALVETRTIVRFNRPFLMIIVPTDTQNIFFMSKVTNPKQA
- effect on fibril formation (Aβ1-42 toxicity): without affecting fibril formation
- optimal dose for inhibition of amyloid toxicity [5]: 10^−8 M
- optimal dose for inhibition of amyloid toxicity ([6]; 15 cells (IS cells), MTT, different concentrations of Aβ): 10^−7 M
- beta-amyloid-induced drop in cell viability ([6]; MTT): can protect against Aβ-induced drop in cell viability
- beta-amyloid-induced drop in cell viability [6, 9]: prevented
- effect of further increase of ACT concentration on protection against beta-amyloid ([6]; above optimal dose, bell-shaped dose-dependence): disappearance of protection; also recorded: bell-shaped dose-dependence of protection
- protection against beta-amyloid-induced drop in cell viability ([6]; in some conditions, cell line not specified (15 cells or rat primary cortical cultures), MTT): 100%
- amylin-induced drop in cell viability / cellular toxicity ([7]; MTT): prevent amylin-induced cellular toxicity
- amylin-induced drop in cell viability / cellular toxicity [7, 9]: prevented
- protection against amylin ([7]; MTT): < 100%
- effect of further increase of ACT concentration on protection against amylin ([7]; above optimal dose): significantly decreased the protective effect

B2: cystatin C (protein, UniProt P01034 27-146, looked up)
Cystatin-C: SSPGKPPRLVGGPMDASVEEEGVRRALDFAVGEYNKASNDMYHSRALQVVRARKQIVAGVNYFLDVELGRTTCTKTQPNLDNCPFHDQPHLKRKAFCSFQIYAVPWQGTMTLSKSTCQDA
- drop of cell survival induced by Aβ1-42 [8]: prevented the drop of cell survival induced by Aβ1-42

Reference: patent publication US20220249606A1, “Method of treatment of degenerative diseases caused by membrane channel-forming peptides fragments” (Zarbio, priority 2021, published 2022)
